According to patent US20220175768A1, “FGFR TYROSINE KINASE INHIBITORS FOR THE TREATMENT OF UROTHELIAL CARCINOMA” (Janssen Pharmaceutica NV, priority 2019, published 2022):

Columns and labels:
[1] = study in which nine of 10 patients had disease progression with prior immunotherapy; cited from earlier work
urothelial cancer = assay: Best response to prior therapy before study enrolment per investigator assessment; format: in vivo, human; details: first-line, across all regimens
Text: Across all regimens, 184 patients had received first-line platinum-based chemotherapy, 83 had received second-line chemotherapy, and 24 had received third-line chemotherapy before study enrolment.

Row | Compound | Patients who responded to rogaratinib [1] [%] | Best ORR per investigator assessment to prior chemotherapy (urothelial cancer) [%]
1 | COCc1c(-c2cc3cc(C)cc(OC)c3s2)c2c(N)ncnn2c1CN1CCNC(=O)C1 [rogaratinib] | 30 | –
2 | gemcitabine plus cisplatin | – | 35
